Results on one molecule are retold here after article PMC11375702, “Early Preclinical Studies of Ergosterol Peroxide and Biological Evaluation of Its Derivatives” (ACS Omega, 2024).

Data set [1] in a line: in vitro. The settings on record: male, Balb/c, mouse, plasma.
Experimental: Briefly, pooled blood from 3 animals for experiment (male Balb/c 6–8w from the division of laboratory animal medicine in-house breeding colony) was collected, and the heparinized plasma was prepared. Plasma and test compounds were added to individual wells of a 96-well microtiter plate. Compounds were incubated at 37 °C for the provided time points. All tests were performed in triplicates. The test compound was incubated with plasma at six different time points. The reaction was terminated by methanol containing an internal standard. After centrifugation, the concentration of the test compound in the supernatant was quantified by LC-MS/MS.
Plasma stability assay: Briefly, pooled blood from 3 animals for experiment (male Balb/c 6-8w
from the division of laboratory animal medicine in-house breeding colony) was collected, and
the heparinized plasma was prepared. Plasma and test compounds were added to the individual
wells of a 96-well microtiter plate. Compounds were incubated at 37°C for the provided time
points. All tests were performed in triplicates. Then, the test compound was incubated with
plasma at six different time points. The reaction was terminated by the addition of methanol
containing an internal standard. After centrifugation, the concentration of the test compound in
the supernatant was quantified by LC-MS/MS. The percentage of test compound remaining at
compounds are known to be metabolized by plasma esterases,1 and were also incubated with
each batch of test compound.
A standard protocol and MS method was used for the plasma stability experiment. The extraction
procedure for plasma/tissue samples and the spiked plasma/tissue calibration standards were
identical: A 25 µL of study sample or spiked plasma/tissue calibration standard was added to
individual pre-labeled micro-centrifuge tubes followed by 100 µL of internal standard prepared
in Acetonitrile (Albendazole, 500 ng/mL) was added except for blank, where 100 µL of
Acetonitrile was added. Samples were vortexed for 5 minutes. Samples were centrifuged for 5
minutes at a speed of 4000 rpm at 4°C. Following centrifugation, 100 µL of clear supernatant
was transferred in 96 well plates and analyzed using LC-MS/MS mode. The LC system
comprises of a binary pump that can mix two mobile phases: A = Water+0.1% formic acid; B =
acetonitrile +0.1%formic acid. The system was operated in gradient mode using a 6 minute
min, 10-90% A to B in 5.5-6 min, and then hold at this gradient, using a Phenomenex Luna, 150
X 4.6 mm, 5 µm column. Source Parameter: positive, Ion Spray Voltage 5500, Temperature
550C, interface heater on.
Data set [2] in a line: in vitro. The settings on record: human, plasma.
Data set [3] relates to SUM149. Kind of data set: CellTiter-Glo 72 h cytotoxicity assay, SUM149. In kind it is cell-based. The settings on record: Homo sapiens. An excerpt:
(§1) First, topological polar surface area (tPSA), a widely used molecular descriptor that provides insight into compound absorption and membrane penetration, was theoretically calculated for these compounds along with the estimated c log P (partition coefficient) or log P to further assess their global therapeutic potential.[18],[19] Lipophilicity, a measurable and predictable physical property, can provide practical guidance in designing compounds with improved molecular properties.[20] The tPSA sums the contribution of the surface area of polar atoms, enabling us to determine whether the compounds are more likely to be cell membrane permeable. The aqueous solubility was measured by ultraviolet/visible (UV/vis) spectroscopy.[21] […] EP shares an improved cLogP, but still relatively high from a desirable drug candidate (2.5–3.5). […] Compound 4 has a higher c log P, while compounds 5–10 have lower c log P values. To determine LiPE (lipophilicity efficiency), the following formula was used: LiPE = pIC50 – log P, according to established methods.[22],[23] […] The obtained EC50 values for the newly generated EP derivatives were within a similar range for other derivatives previously described against TNBC models.[17]
(§2) The following stable human cell lines were utilized for this study: SUM149 and MDA-MB-231 (breast cancer models) and BJ (human normal fibroblast, foreskin). Cells were purchased from BioIVT or the American Type Culture Collection (ATCC). Cells were cultured in F-12-Nutrient Mixture (SUM149), DMEM (MDA-MB-231), or EMEM (BJ) medium supplemented with 10% fetal bovine serum (Sigma-Aldrich, St. Louis, MO) and 2 mmol of L-glutamine, at 37 °C in a humidified 5% CO2 atmosphere (no antibiotics) as indicated by the manufacturer. Cell cultures were grown to 80–90% confluence before use, except where otherwise specified. Our cell lines are authenticated every 3 months using the CellCheck service (Idexx BioResearch, Westbrook, ME). Cells were tested for mycoplasma prior to use (MycoAlert detection Kit Lonza LT07–318) and discarded if they tested positive. A cell proliferation assay was performed using the CellTiter-Glo (Promega Corp., Madison, WI) luminescent cell viability assay kit. Cells were detached with trypsin, counted, and seeded in white polystyrene flat-bottom sterile 96-well tissue culture-treated plates (catalog no. 3917, Corning, Glendale, Arizona) and incubated overnight at 37 °C. MDA-MB231, SUM149, and BJ cells were seeded into 96-well plates at concentrations experimentally determined (0.4 × 10^4, 0.25 × 10^4, and 0.3 × 10^4 cells per well, respectively) to ensure logarithmic growth during the duration of the experiment and to prevent adverse effects on cell growth by DMSO exposure. The plates were incubated for 12 h before treatment. Stock solutions of test compounds (10 mM in DMSO) in nine 3-fold serial dilutions were dispensed. The final concentration of DMSO was 0.3% (v/v) in each well. The positive control used was staurosporine (10 μM) as the kill-all control, and the negative control used is DMSO as we have published. Staurosporine is a potent alkaloid inducer of various cell death modalities but primarily apoptosis, making it a reliable positive control for viability assays. The plates were incubated for 72 h and then quenched with CTG at 50 μL per well at RT. Plates were then incubated at RT for 20 min and centrifuged at 1000 rpm for 1 min. Luminescence was read on a CLARIOstar Plus plate reader (BMG LabTech, Ortenberg, Germany).
Three or four technical replicates were conducted for each experimental condition, and a minimum of three independent experiments were conducted for each assay. In vitro ADME values were expressed as mean ± standard deviation (SD) of at least three independent experiments. One-way analysis of variance (ANOVA) was adopted for comparisons among groups using the GraphPad Prism 10.2.3 (GraphPad Software, San Diego, CA). A difference of P < 0.05 was considered as statistically significant. […]

Data set [4] in a line: Metabolic stability in human liver microsomes. The data set is classed as in vitro ADME. (Liver microsomes are a subcellular fraction often used to study metabolism.)
Experimental: (§5) Human and/or mouse microsomal degradation was determined using multiple time points to monitor the rate of disappearance of the parent compound during incubation following the method described by Di et al.[51],[52] […] The metabolic stability was evaluated via the half-life from the least-squares fit of the multiple time points based on first-order kinetics. Waters ACQUITY-TOQ UPLC-MS-MS-UV system was used to analyze the samples as established in various MS core facilities.[51],[52]
Data set [5] concerns MDA-MB-231. Kind of data set: CellTiter-Glo 72 h cytotoxicity assay, MDA-MB-231. The data set is classed as cell-based. Conditions: Homo sapiens, CTG assay, read-out: MDA-MB231 (EC50). As for the experimental part: as §2
(§3) Three or four technical replicates were conducted for each experimental condition, and a minimum of three independent experiments were conducted for each assay. In vitro ADME values were expressed as mean ± standard deviation (SD) of at least three independent experiments. One-way analysis of variance (ANOVA) was adopted for comparisons among groups using the GraphPad Prism 10.2.3 (GraphPad Software, San Diego, CA). A difference of P < 0.05 was considered as statistically significant. Data are expressed as mean ± SEM. For CTG, the mean luminescence of each experimental treatment group was normalized as a percentage of the mean intensity of untreated controls (DMSO as vehicle). EC50 values were calculated from dose–response curve fitting via nonlinear regression using GraphPad Prism 10.2.3 (GraphPad Software, San Diego, CA). A therapeutic index (TI) between normal and tumor cell lines can be determined (EC50 non-neoplastic cell line BJ)/(EC50 cancer cell line). In vivo studies were analyzed using mixed-effects regression models to compare the changes in tumor volume over time by treatment group. Tumor volume reduction was compared using ANOVA with repeated measures, and all data was considered significant when P < 0.05.

In data set [6] the test system is BJ. Put plainly: CellTiter-Glo 72 h cytotoxicity assay, BJ normal fibroblasts. In kind it is cell-based. Conditions: Homo sapiens, CTG assay, noncancerous fibroblasts. As for the experimental part:
as §2, §3
(ATP-based viability assays read luminescence as a measure of living cells.)

A short description of data set [7]: Metabolic stability in mouse liver microsomes. In kind it is in vitro ADME.
Experimental: as §5
Data set [8] can be described thus: Plasma protein binding, rapid equilibrium dialysis (human). In kind it is in vitro ADME. The method, then:
(§4) This assay determines the plasma protein binding of a drug or compound and free drug concentration in plasma using rapid equilibrium dialysis. We use the Single-Use RED (rapid equilibrium dialysis, Thermo Scientific) devices to allow the aqueous component of plasma containing the free drug/compound through a dialysis membrane (MWCO ∼ 8000). Sample quantification is determined using a Waters ACQUITY-SOQ UPLC-MS-ELDS-UV system.

Data set [9] is described as follows: Plasma protein binding, rapid equilibrium dialysis (mouse). In kind it is in vitro ADME. The method, then:
as §4
(In general: In equilibrium dialysis free small molecules cross a membrane that holds back macromolecules.)

A short description of data set [10]: Aqueous solubility by UV/vis absorbance. In kind it is physicochemical. The settings on record: water, kinetic from dmso stock.
Text: as §1
Briefly, clear 96-well PS plates with lids (catalog no. 3903, Corning, Glendale, Arizona) were used for spectrophotometric determination of absorbance with a CLARIOstar Plus plate reader (BMG LabTech, Ortenberg, Germany) to determine at which concentration the compounds are precipitating out of solution. Decrease in transmittance of 2% or higher was considered significant. Compound solutions of 10 mM in DMSO were prepared followed by a serial dilution series, which were vortexed to ensure the solutions were homogeneous. The 96-well plate was then prepared with distilled H2O and allowed to equilibrate for 1.5 h. Then, the plate was placed in a CLARIOstar Plus plate reader or Cytation C10 (Biotek, Agilent) and set to detect absorbance at 220–700 nm. Each well was read individually. Three replicate assays were conducted for each experimental condition, and a minimum of three independent experiments were conducted.

As a reminder, the EC50 is the midpoint of the concentration-response curve. Usually IC50 stands for the concentration at which inhibition is half-maximal. By fraction unbound is commonly meant the share of the substance not bound to proteins or other matrix. A high value points to much free substance. As usually defined, the solubility is how much of the substance goes into solution per volume.

Converted amounts (≈) assume the structure as drawn. Some results are limits rather than exact numbers.

In the case of `CC(C)[C@@H](C)/C=C/[C@@H](C)[C@H]1CC[C@@H]2[C@]1(C)CC[C@H]1[C@]23C=C[C@]2(C[C@@H](OC(=O)NS(=O)(=O)c4ccccc4)CC[C@]12C)OO3` [Compound 7], the half-life in data set [1] was over 48 h; in data set [2], over 48 h; in data set [4] (both sexes, pooled liver microsomes, read-out: metabolic stability (human) t1/2 (converted)), 49.8 min; in data set [7] (female, CD-1, pooled liver microsomes, read-out: metabolic stability (mouse) t1/2 (converted)), 54 min. The EC50 in [3] (SUM149, CTG assay, 72 h) came out at 5.6 µM; in data set [5], 12 µM; in data set [6] it was 47.1 µM. Moreover, the IC50 in data set [3] (calculated from SUM149 EC50) is 5.62 µM. Also, in [4], the “metabolic stability (human) clint” value is 24.91 mL/Min/K g. Further, the “metabolic stability (mouse) clint” value in [7] is 63.82 mL/Min/K g. Also, the fraction unbound in [8] is 0.0062; in data set [9] it was 0.0017. In data set [10], this molecule had a solubility at […] of 26.8 µg/mL (≈ 43.7 µM).
